Experimental data taken from EP3436445B1, “HISTONE DEMETHYLASE INHIBITORS” (Celgene Quanticel Research, Inc., priority 2016, dated 2017).

Key:
[1] = target: T1, Jarid1B (Homo sapiens, UniProt Q9UGL1); assay: Jarid1B in vitro enzyme inhibition assay (TR-FRET); format: biochemical; conditions: Table 5; 0.8 nM Jarid1B, H3K4me3-biotin labeled peptide; read-out: JARID1B IC5
T1 construct: purchased BPS Bioscience (or custom made by MolecularThroughput) 50121
T1 sequence (Q9UGL1 2-751): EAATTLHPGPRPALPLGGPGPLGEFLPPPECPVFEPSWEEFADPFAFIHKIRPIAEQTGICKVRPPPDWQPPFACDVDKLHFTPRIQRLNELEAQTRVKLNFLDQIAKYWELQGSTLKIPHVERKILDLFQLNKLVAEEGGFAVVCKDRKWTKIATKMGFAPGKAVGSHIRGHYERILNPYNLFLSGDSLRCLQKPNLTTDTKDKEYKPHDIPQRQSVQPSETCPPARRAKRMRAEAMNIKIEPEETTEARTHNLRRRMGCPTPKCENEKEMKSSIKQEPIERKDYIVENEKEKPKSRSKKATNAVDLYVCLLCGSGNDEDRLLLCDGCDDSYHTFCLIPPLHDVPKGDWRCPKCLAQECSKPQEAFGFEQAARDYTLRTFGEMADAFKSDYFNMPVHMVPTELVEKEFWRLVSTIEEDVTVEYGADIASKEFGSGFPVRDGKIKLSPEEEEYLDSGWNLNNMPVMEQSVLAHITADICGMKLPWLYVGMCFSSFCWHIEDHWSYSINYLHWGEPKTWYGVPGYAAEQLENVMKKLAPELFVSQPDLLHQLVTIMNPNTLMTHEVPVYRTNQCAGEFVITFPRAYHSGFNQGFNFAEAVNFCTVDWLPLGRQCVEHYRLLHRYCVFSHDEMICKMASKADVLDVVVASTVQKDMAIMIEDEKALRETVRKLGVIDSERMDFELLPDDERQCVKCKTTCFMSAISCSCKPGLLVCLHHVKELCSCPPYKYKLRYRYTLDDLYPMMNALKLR
Excerpt: (§1) This assay determines the ability of a test compound to inhibit Jarid1B, JMJD2C and JMJD3 demethylase activity. Baculovirus expressed Jarid1B (GenBank Accession #NM-006618, AA 2-751) was purchased from BPS Bioscience (Cat #50121) or custom made by MolecularThroughput. Baculovirus expressed JMJD2C (GenBank Accession #BC143571, AA 2-372) was purchased from BPS Bioscience (Cat#50105). Baculovirus expressed JMJD3 (GenBank Accession #NM-001080424, AA1043-end) was purchased from BPS Bioscience (Cat#50115).
The ability of test compounds to inhibit the activity of Jarid1B was determined in 384-well plate format under the following reaction conditions: 0.8 nM Jarid1B, 300 nM H3K4me3-biotin labeled peptide (Anaspec cat #64357), 2 µM alpha-ketoglutaric acid in assay buffer of 50 mM HEPES, pH7.3, 0.005% Brij35, 0.5 mM TCEP, 0.2 mg/ml BSA, 50 µM sodium L-ascorbate, and 2 µM ammonium iron(II) sulfate. Reaction product was determined quantitatively by TR-FRET after the addition of detection reagent Phycolink Streptavidin-allophycocyanin (Prozyme) and Europium-anti-mono-or di-methylated histone H3 lysine 4 (H3K4me1-2) antibody (PerkinElmer) in the presence of 5 mM EDTA in LANCE detection buffer (PerkinElmer) at a final concentration of 25 nM and 1 nM, respectively.
(§2) The assay reaction was initiated by the following: 2 µl of the mixture of 900 nM H3K4me3-biotin labeled peptide and 6 µM alpha-ketoglutaric acid with 2 µl of 11-point serial diluted inhibitor in 3% DMSO was added to each well of the plate, followed by the addition of 2 µl of 2.4 nM Jarid1B to initiate the reaction. The reaction mixture was incubated at room temperature for 30 minutes, and terminated by the addition of 6 µl of 5 mM EDTA in LANCE detection buffer containing 50 nM Phycolink Streptavidin-allophycocyanin and 2 nM Europium-anti-H3K4me1-2 antibody. Plates were read by EnVisionMultilabel Reader in TR-FRET mode (excitation at 320 nm, emission at 615 nm and 665 nm) after 1 hour incubation at room temperature. A ratio was calculated (665/615) for each well and fitted to determine inhibition constant (IC50).

[2] = target: T2, JMJD2C (Homo sapiens, UniProt Q9H3R0); assay: JMJD2C in vitro enzyme inhibition assay (TR-FRET); format: biochemical; conditions: Table 5; 0.3 nM JMJD2C, H3K9me3-biotin labeled peptide
T2 construct: purchased BPS Bioscience 50105
T2 sequence (Q9H3R0 2-372): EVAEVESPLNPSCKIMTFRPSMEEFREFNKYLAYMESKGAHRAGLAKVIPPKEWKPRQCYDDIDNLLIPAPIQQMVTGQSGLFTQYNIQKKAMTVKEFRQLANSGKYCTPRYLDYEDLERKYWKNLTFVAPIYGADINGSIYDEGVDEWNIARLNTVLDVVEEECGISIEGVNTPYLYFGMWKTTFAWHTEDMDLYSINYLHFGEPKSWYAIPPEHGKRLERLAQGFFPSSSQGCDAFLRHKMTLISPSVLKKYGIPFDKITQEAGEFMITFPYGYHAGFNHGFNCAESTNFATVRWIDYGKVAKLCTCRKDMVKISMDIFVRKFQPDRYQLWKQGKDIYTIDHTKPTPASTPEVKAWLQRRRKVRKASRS
Excerpt: as §1
The ability of test compounds to inhibit the activity of JMJD2C was determined in 384-well plate format under the following reaction conditions: 0.3 nM JMJD2C, 300 nM H3K9me3-biotin labeled peptide (Anaspec cat #64360), 2 µM alpha-ketoglutaric acid in assay buffer of 50 mM HEPES, pH7.3, 0.005% Brij35, 0.5 mM TCEP, 0.2 mg/ml BSA, 50 µM sodium L-ascorbate, and 2 µM ammonium iron(II) sulfate. Reaction product was determined quantitatively by TR-FRET after the addition of detection reagent Phycolink Streptavidin-allophycocyanin (Prozyme) and Europium-anti-di-methylated histone H3 lysine 9 (H3K9me2) antibody (PerkinElmer) in the presence of 5 mM EDTA in LANCE detection buffer (PerkinElmer) at a final concentration of 50 nM and 1 nM, respectively.
as §2, with “nM H3K9me3-biotin” for “nM H3K4me3-biotin”, “DMSO were” for “DMSO was”, “of 0.9” for “of 2.4”, “nM JMJD2C” for “nM Jarid1B”, “containing 100” for “containing 50”, “nM Europium-anti-H3K9me2” for “nM Europium-anti-H3K4me1-2”

Row | Compound | IC50 [1] | IC50 [2]
1 | Cc1ccccc1Cn1cnc(-c2cc(-c3nn[nH]c3C(F)(F)F)ccn2)c1 [Example 66, 2-{1-[(2-methylphenyl)methyl]-1H-imidazol-4-yl}-4-[5-(trifluoromethyl)-1H-1,2,3-triazol-4-yl]pyridine] | 100 to 1000 nM | > 10000 nM
2 | Fc1ccc(F)c(CCn2cnc(-c3cc(-c4nn[nH]c4C(F)(F)F)ccn3)c2)c1 [Example 88, 2-{1-[2-(2,5-difluorophenyl)ethyl]-1H-imidazol-4-yl}-4-[5-(trifluoromethyl)-1H-1,2,3-triazol-4-yl]pyridine] | ≤ 100 nM | > 10000 nM
3 | Fc1ccc(CCn2cnc(-c3cc(-c4nn[nH]c4C(F)(F)F)ccn3)c2)cc1 [Example 77] | ≤ 100 nM | > 10000 nM
4 | FC(F)(F)c1ccccc1CCn1cnc(-c2cc(-c3nn[nH]c3C(F)(F)F)ccn2)c1 [Example 60, 4-[5-(trifluoromethyl)-1H-1,2,3-triazol-4-yl]-2-(1-{2-[2-(trifluoromethyl)phenyl]ethyl}-1H-imidazol-4-yl)pyridine] | ≤ 100 nM | 1000 to 10000 nM
5 | Fc1ccc(Cn2cnc(-c3cc(-c4nn[nH]c4C(F)(F)F)ccn3)c2)c(F)c1 [Example 68, 2-{1-[(2,4-difluorophenyl)methyl]-1H-imidazol-4-yl}-4-[5-(trifluoromethyl)-1H-1,2,3-triazol-4-yl]pyridine] | 100 to 1000 nM | > 10000 nM
6 | Cc1ccc(Cn2cnc(-c3cc(-c4nn[nH]c4C(F)(F)F)ccn3)c2)c(F)c1 [Example 71, 2-{1-[(2-fluoro-4-methylphenyl)methyl]-1H-imidazol-4-yl}-4-[5-(trifluoromethyl)-1H-1,2,3-triazol-4-yl]pyridine] | 100 to 1000 nM | > 10000 nM
7 | Cn1cnc(-c2cc(-c3nn[nH]c3C(F)(F)F)ccn2)c1-c1ccc(F)cc1 [Example 97, 2-[5-(4-fluorophenyl)-1-methyl-1H-imidazol-4-yl]-4-[5-(trifluoromethyl)-1H-1,2,3-triazol-4-yl]pyridine] | ≤ 100 nM | > 10000 nM
8 | Fc1ccc2c(c1)C(Cn1cnc(-c3cc(-c4nn[nH]c4C(F)(F)F)ccn3)c1)CCC2 (stereo not drawn) [Example 101, 2-{1-[(7-fluoro-1,2,3,4-tetrahydronaphthalen-1-yl)methyl]-1H-imidazol-4-yl}-4-[5-(trifluoromethyl)-1H-1,2,3-triazol-4-yl]pyridine] | ≤ 100 nM | > 10000 nM
9 | COc1cccc2c1C(Cn1cnc(-c3cc(-c4nn[nH]c4C(F)(F)F)ccn3)c1)CCC2 (stereo not drawn) [Example 107, 2-{1-[(8-methoxy-1,2,3,4-tetrahydronaphthalen-1-yl)methyl]-1H-imidazol-4-yl}-4-[5-(trifluoromethyl)-1H-1,2,3-triazol-4-yl]pyridine] | 100 to 1000 nM | > 10000 nM
10 | COc1ccc(CCn2cnc(-c3cc(-c4nn[nH]c4C(F)(F)F)ccn3)c2)cc1 [Example 93, 2-{1-[2-(4-methoxyphenyl)ethyl]-1H-imidazol-4-yl}-4-[5-(trifluoromethyl)-1H-1,2,3-triazol-4-yl]pyridine] | ≤ 100 nM | > 10000 nM
11 | Fc1cccc(Cl)c1CCn1cnc(-c2cc(-c3nn[nH]c3C(F)(F)F)ccn2)c1 [Example 80, 2-{1-[2-(2-chloro-6-fluorophenyl)ethyl]-1H-imidazol-4-yl}-4-[5-(trifluoromethyl)-1H-1,2,3-triazol-4-yl]pyridine] | 100 to 1000 nM | > 10000 nM
12 | Fc1ccc(Cn2cnc(-c3cc(-c4nn[nH]c4C(F)(F)F)ccn3)c2)cc1 [Example 61, 2-{1-[(4-fluorophenyl)methyl]-1H-imidazol-4-yl}-4-[5-(trifluoromethyl)-1H-1,2,3-triazol-4-yl]pyridine] | 100 to 1000 nM | > 10000 nM
13 | Cc1ccc2c(c1)C(Cn1cnc(-c3cc(-c4nn[nH]c4C(F)(F)F)ccn3)c1)CCC2 (stereo not drawn) [Example 103, 2-{1-[(7-methyl-1,2,3,4-tetrahydronaphthalen-1-yl)methyl]-1H-imidazol-4-yl}-4-[5-(trifluoromethyl)-1H-1,2,3-triazol-4-yl]pyridine] | ≤ 100 nM | > 10000 nM
14 | Cc1ccc(Cn2cnc(-c3cc(-c4nn[nH]c4C(F)(F)F)ccn3)c2)cc1 [Example 65, 2-{1-[(4-methylphenyl)methyl]-1H-imidazol-4-yl}-4-[5-(trifluoromethyl)-1H-1,2,3-triazol-4-yl]pyridine] | > 10000 nM | > 10000 nM
15 | FC(F)(F)c1[nH]nnc1-c1ccnc(-c2cn(CC3CCc4ccccc43)cn2)c1 (stereo not drawn) [Example 83, 2-{1-[(2,3-dihydro-1H-inden-1-yl)methyl]-1H-imidazol-4-yl}-4-[5-(trifluoromethyl)-1H-1,2,3-triazol-4-yl]pyridine] | ≤ 100 nM | 1000 to 10000 nM
